According to US11530186B2, “Inhibitors for the β-catenin / T-cell factor protein-protein interaction” (H. LEE MOFFITT CANCER CENTER AND RESEARCH INSTITUTE, INC., priority 2018, dated 2022):
Read-outs that look alike come from different tables or passages of the source.

Biological target: T1, β-catenin/Tcf protein-protein interaction (Homo sapiens, UniProt P35222)
T1 construct: Wild-type β-catenin (residues 138-781) were cloned into a pET-28b vector; 6×histidine (C); made in house; host or cells: E. coli BL21 DE3
T1 sequence (P35222 138-781): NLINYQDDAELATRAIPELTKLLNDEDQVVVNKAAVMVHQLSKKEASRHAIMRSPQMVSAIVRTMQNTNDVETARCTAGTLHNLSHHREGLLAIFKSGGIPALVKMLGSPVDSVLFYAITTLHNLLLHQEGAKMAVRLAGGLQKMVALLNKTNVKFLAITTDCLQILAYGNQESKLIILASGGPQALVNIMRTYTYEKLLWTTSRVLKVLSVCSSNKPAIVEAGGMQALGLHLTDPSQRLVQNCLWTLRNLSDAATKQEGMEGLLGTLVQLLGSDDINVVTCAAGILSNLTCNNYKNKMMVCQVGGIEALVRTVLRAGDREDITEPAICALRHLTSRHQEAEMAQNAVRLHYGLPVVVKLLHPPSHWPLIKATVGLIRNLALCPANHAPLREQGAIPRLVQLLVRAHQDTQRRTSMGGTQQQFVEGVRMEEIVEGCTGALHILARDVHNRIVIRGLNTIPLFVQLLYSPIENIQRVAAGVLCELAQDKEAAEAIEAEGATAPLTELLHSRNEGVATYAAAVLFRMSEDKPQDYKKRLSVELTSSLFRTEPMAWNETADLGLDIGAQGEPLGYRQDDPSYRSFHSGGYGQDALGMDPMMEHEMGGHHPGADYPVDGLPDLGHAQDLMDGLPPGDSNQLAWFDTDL
Assay: FP competitive inhibition assay
Type: binding
In short: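 His-tagged human β-catenin (residues 138-781, E. coli-expressed) at 10 nM with 2.5 nM fluorescein-labeled Tcf4 (7-51) in PBS-type buffer with bovine γ-globulin and 0.01% Triton X-100. Compounds added, 1.5 h at 4 °C, 1% DMSO, before fluorescence polarization read. IC50 by nonlinear fit; Ki derived from IC50.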

- Ki (Assay 1, mean ± SD (n = 3), read-out: Ki ± SD, Assay 1): 3.3 ± 0.64 µM
- Ki (Assay 2, mean ± SD (n = 3), read-out: Ki ± SD, Assay 2): 1.3 ± 0.38 µM
- Ki (Assay 3, mean ± SD (n = 3), read-out: Ki ± SD, Assay 3): 5.6 ± 1.8 µM
SMILES: O=C(O)c1ccc2c(c1)c(CCc1ccc(Cl)cc1)c(CCc1nc3ccccc3s1)n2CCc1nn[nH]n1 [Compound 27, 1-(2-(2H-tetrazol-5-yl)ethyl)-2-(2-(benzo[d]thiazol-2-yl)ethyl)-3-(4-chlorophenethyl)-1H-indole-5-carboxylic acid]
